# Reference: patent US20200216906A1, “METHODS AND COMPOSITIONS RELATING TO THE DIAGNOSIS AND TREATMENT OF CANCER” (PRESIDENT AND FELLOWS OF HARVARD COLLEGE, priority 2015, published 2020)
# Columns and labels:
# [1] = tested on: H2052 (LATS2) cells; assay: Gemcitabine and dFdU efflux by LC-MS/MS, H2052 cells; format: in vitro ADME; settings: higher in H2052 (LATS2)
# From the text: Are defects in the Hippo pathway the major cause of gemcitabine sensitivity? […] Restoring the levels of LATS2 in H2052 cells caused an increase in the mRNA and proteins levels of ABCG2 and CDA (FIGS. 23C, 36A-36M).
# [2] = tested on: Panc02.13 cells expressing YAPS6A; assay: Gemcitabine and dFdU efflux by LC-MS/MS, Panc02.13 YAPS6A vs GFP; format: in vitro ADME, human; settings: less efflux in YAPS6A after gemcitabine treatment, p<0.05
# From the text: It was considered whether the Hippo pathway might affect the efflux of gemcitabine and/or its metabolites. To assess directly gemcitabine efflux in conditioned media of pancreatic cancer cells both radiolabeled gemcitabine and LC-MS/MS-based methods were used. Panc02.13 cells grown in highly crowded conditions (Hippo-ON) pumped out 2-3-fold more radiolabeled gemcitabine (counts per μg protein) compared with cells grown in less crowded conditions (Hippo-OFF) (FIG. 22A). Another pathway of inactivation and export is the enzymatic conversion of gemcitabine to a uracil derivative (2′,2′-difluorodeoxyuridine, dFdU) by deamination catalyzed by cytidine deaminase (CDA)(Veltkamp et al., 2008). The efflux of gemcitabine and its deaminated metabolite, dFdU was measured by LC-MS/MS (24) in Panc02.13 cells expressing YAPS6A or vector control after gemcitabine treatment (FIG. 22B).
# [3] = tested on: Miapaca2-YAPS6A xenografts; assay: Mouse xenograft, Miapaca2-YAPS6A; format: in vivo; settings: LC-MS/MS, p<0.01
# Procedure: To assess the gemcitabine response to Hippo pathway inactivation in tumors a mouse xenograft model of pancreatic carcinoma cells and patient-derived xenograft (PDX) models from a variety of solid tumors including human cancers from non-small cell lung, esophagus, breast, mesothelium, ovary, colon, head and neck, sarcoma, and cholangiocarcinoma were used (FIG. 30). In mouse xenograft studies, two human pancreatic cancer cell lines (Miapac2 and Panc02.13) expressing GFP or YAPS6A were injected into athymic mice. Both parental or GFP expressing cells grew rapidly, producing palpable tumors in 5-10 days. When the tumors were ˜200 mm^3 (as measured using a caliper), mice were randomized into treatment and control groups. The […] received i.p. saline injections on alternate days for two weeks, and the latter received gemcitabine (20 mg/kg in Miapaca2-YAPS6A and 50 mg/Kg in Panc02.13-YAPS6A cohorts).
# Tumorigenicity in Nude Mice. All in vivo experiments were performed using 6-week-old to 8-week-old athymic nude mice. Mice were maintained in laminar flow rooms with constant temperature and humidity. Miapaca2 or Panc02.13 cells were inoculated subcutaneously (s.c.) into each flank of the mice. Cells (2×10^6 in suspension) were injected on day 0, and tumor growth was followed every 2 to 3 days by tumor diameter measurements using vernier calipers. Tumor volumes (V) were calculated using the formula: V=AB2/2 (A, axial diameter; B, rotational diameter). When the outgrowths were • 200 mm^3, mice were divided at random into two groups (control and treated, n=3-8). The treated group received gemcitabine injection or saline control on alternate days (MWF) for 2 weeks.
# Intra-tumor gemcitabine measurements.
# [4] = tested on: CDA; assay: CDA expression after verteporfin treatment; format: cell-based, human; settings: verteporfin treatment of Panc02.13 cells, p<0.05
# Procedure: Cells were serum-starved for 24 h and total cellular RNA was isolated using an RNeasy™ Mini Kit (QIAGEN, Santa Clara, Calif.). mRNA levels for the EMT-related genes were determined using the RT^2 Profiler™ qPCR array (SA Biosciences Corporation, Frederick, Md.). Briefly, 1 μg of total RNA was reverse transcribed into first strand cDNA using an RT^2 First Strand™ Kit (SA Biosciences). The resulting cDNA was subjected to qPCR using human gene-specific primers for 75 different genes, and five housekeeping genes (B2M, HPRT1, RPL13A, GAPDH, and ACTB). The qPCR reaction was performed with an initial denaturation step of 10 min at 95° C., followed by 15 s at 95° C. and 60 s at 60° C. for 40 cycles using an Mx3000P™ QPCR system (Stratagene, La Jolla, Calif.).
# The activity of the Hippo pathway not only affected the efflux of gemcitabine but also its major metabolite, dFdU (FIG. 22B).
# RNA extraction and quantitative real-time PCR. Cells were serum-starved for 24 h and total cellular RNA was isolated using an RNeasy Mini Kit (QIAGEN, Santa Clara, Calif.). mRNA levels for the EMT-related genes were determined using the RT2 Profiler™ qPCR array (SA Biosciences Corporation, Frederick, Md.). Briefly, 1 μg of total RNA was reverse transcribed into first strand cDNA using an RT2 First Strand Kit (SA Biosciences). […]
# [5] = tested on: Panc02.13 cells with NF2 depletion; assay: High-density spheroid assay, NF2-depleted Panc02.13 cells; format: cell-based, human
# From the text: In cells at low cell density, where YAP is localized to the nucleus, presumably YAP dependent transcription is turned on. At high density, YAP is in the cytoplasm, transcription is blocked and resistance to gemcitabine is high. Given these correlations it was asked whether inactivation of Hippo pathway could restore gemcitabine sensitivity in crowded conditions. Expression of a non-phosphorylatable form of YAP (YAPS6A) in Panc02.13 pancreatic cancer cells causes constitutive nuclear localization of exogenous YAP even at high crowding (data not shown).
# [6] = tested on: Panc02.13 cells; assay: 3D spheroid growth assay, Panc02.13 (GFP/parental) cells; settings: read-out: EC50 in 3D-spheroid assays; 3D-spheroid (Hippo-on)
# Procedure: Cancer cell lines were seeded at a 5×10^3 cells per well in a 96-well ultra-low adherence plates (Costar) and briefly spun down at 1000 rpm for 5 minutes. After 2 days, cells were treated with small molecule inhibitors at varying concentrations. Growth of spheroids was monitored using live cell imaging every 2-3 hours for 4-7 days in the Incucyte FLR™ system (Essen) or as end point assay using CellTiter-Glo™ luminescent cell viability assay (Promega).
# A dose response curve for each inhibitor is calculated based on control (no inhibitor/DMSO) treated wells.
# Cancer cell lines were seeded at a 5×10^3 cells per well in a 96-well ultra-low adherence plates (Costar) and briefly spun down at 1000 rpm for 5 minutes. After 2 days, cells were treated with small molecule inhibitors at varying concentrations. Growth of spheroids was monitored using live cell imaging every 2-3 hours for 4-7 days in the Incucyte ZOOM™ system (Essen) or as end point assay using CellTiter-Glo™ luminescent cell viability assay (Promega).
# [7] = tested on: pancreatic cancer cell lines; assay: Kinetic cell growth assay, panel of pancreatic cancer cell lines; format: cell-based, human; settings: low density growth conditions (Hippo-Off); read-out: EC50 on pancreatic cancer cell growth
# Procedure: (§1) The effect of gemcitabine on pancreatic cancer cell growth was studied using a kinetic cell growth assay. Pancreatic cancer cells were plated on 96-well plates (Essen ImageLock, Essen Instruments, MI, US) at varying densities (2-4×10^3 for low density or 15-20×10^3 for high density experiments). Small molecule inhibitors at different doses were added 24 hours after plating and cell confluence was monitored with Incucyte Live-Cell Imaging System and software (Essen Instruments). Confluence was observed every hour for 48-144h or until the control (DMSO only) samples reached 100% confluence.
# FIG. 20A illustrates the kinetic cell growth assay to determine the effect of gemcitabine in a panel of pancreatic cancer cell lines. Cells are plated at low crowding conditions (10-25% confluence) and 24 hours later exposed to gemcitabine in a dose-dependent manner. They are imaged every 1-3 hours until control (vehicle) treated cells reach 100% confluence. This assay is not confounded by the fact that the time required for each cell line to reach 100% confluence may be very different (as the cell lines have different doubling times). A dose response effect of gemcitabine on cell growth for 16 pancreatic cancer cell lines is shown in FIGS. 20B, 3, 31A-31C and 28, where the range of previous studies is also shown. […] Similar responses to gemcitabine were found in liver cancer cell lines (Huh7 and FOCUS) and untransformed (HEK293) cell lines (FIGS. 3, 31A-31C).
# as §1, with “Kinetic Cell growth assay. The” for “The”, “(2-4X103” for “(2-4×10^3”, “15-20X103” for “15-20×10^3”, “Incucyte™” for “Incucyte”
Compound,"Effluxed dFdU in media, H2052 (LATS2) vs parental H2052 (LATS2−/−) [1]","dFdU effluxed, YAPS6A vs GFP expressing cells [2]",Reduction in intra-tumor accumulation of dFdU vs parental control xenografts [3],Increase in CDA levels [4],Sensitivity after NF2 depletion [5],EC50 [6],EC50 [7]
"O=c1ccn([C@@H]2O[C@H](CO)[C@@H](O)C2(F)F)c(=O)[nH]1 [dFdU, 2′,2′-difluorodeoxyuridine]",2-3 fold,5 fold,> 4 fold,–,–,–,–
verteporfin,–,–,–,3 fold,restored sensitivity,> 5000 nM,< 500 nM
